Laboratory results published in patent US7605156B2, “Methods for the use of inhibitors of cytosolic phospholipase A2” (Wyeth, priority 2001, dated 2009).

Target: T1, cPLA2 (Homo sapiens, UniProt P47712)
T1 sequence (P47712 1-749): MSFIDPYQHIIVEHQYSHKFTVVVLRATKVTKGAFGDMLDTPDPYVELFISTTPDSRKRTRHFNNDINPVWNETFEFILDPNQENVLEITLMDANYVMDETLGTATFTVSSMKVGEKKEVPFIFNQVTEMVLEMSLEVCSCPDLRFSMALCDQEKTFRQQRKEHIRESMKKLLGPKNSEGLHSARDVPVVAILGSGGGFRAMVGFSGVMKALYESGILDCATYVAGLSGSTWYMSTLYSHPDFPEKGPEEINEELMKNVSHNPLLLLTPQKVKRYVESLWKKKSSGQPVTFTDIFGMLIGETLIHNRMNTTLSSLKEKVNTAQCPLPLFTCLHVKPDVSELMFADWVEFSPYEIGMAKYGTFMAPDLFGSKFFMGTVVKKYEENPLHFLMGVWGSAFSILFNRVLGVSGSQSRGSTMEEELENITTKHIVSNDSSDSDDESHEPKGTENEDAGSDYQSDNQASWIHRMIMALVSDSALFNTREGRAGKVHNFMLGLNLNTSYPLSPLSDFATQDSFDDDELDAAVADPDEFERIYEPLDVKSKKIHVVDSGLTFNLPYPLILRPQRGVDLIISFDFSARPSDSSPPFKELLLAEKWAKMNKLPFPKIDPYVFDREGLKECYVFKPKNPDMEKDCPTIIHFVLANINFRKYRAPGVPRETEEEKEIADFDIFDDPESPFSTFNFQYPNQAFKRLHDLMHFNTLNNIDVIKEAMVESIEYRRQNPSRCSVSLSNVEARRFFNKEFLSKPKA
Test: Coumarine assay (hydrolysis of 7-hydroxycoumarinyl 6-heptenoate)
Type: biochemical
Settings: 60 μM 7-hydroxycoumarinyl 6-heptenoate, pH 7.5; read-out: Coumarin IC50

IC50	SMILES
600 nM	CC(CCl)c1ccccc1S(=O)(=O)NCCc1c(CCCc2ccc(C(=O)O)cc2)c2cc(Cl)ccc2n1C(c1ccccc1)c1ccccc1 (centres unmarked) [Example 277, 4-(3-{1-Benzhydryl-5-chloro-2-[2-({[2-(2-chloro-1-methylethyl)phenyl]sulfonyl}amino)ethyl]-1H-indol-3-yl}propyl)benzoic acid]
450 nM	O=C(O)c1ccc(CCCc2c(CCNS(=O)(=O)c3c(F)cc(F)cc3F)n(C(c3ccccc3)c3ccccc3)c3ccc(Cl)cc23)cc1 [Example 199, 4-(3-{1-Benzhydryl-5-chloro-2-[2-(2,4,6-trifluoro-benzenesulfonylamino)-ethyl]-1H-indol-3-yl}-propyl)-benzoic acid]
1100 nM	O=C(O)c1ccc(OCCc2c(CCNS(=O)(=O)c3ccc(Cl)c4nonc34)n(C(c3ccccc3)c3ccccc3)c3ccc(Cl)cc23)cc1 [Example 174, 4-{2-[1-benzhydryl-5-chloro-2-(2-{[(7-chloro-2,1,3-benzoxadiazol-4-yl)sulfonyl]amino}ethyl)-1H-indol-3-yl]ethoxy}benzoic acid]
190 nM	O=C(O)c1ccc(CCCc2c(CCNS(=O)(=O)c3ccccc3F)n(C(c3ccccc3)c3ccccc3)c3ccc(Cl)cc23)cc1 [Example 222, 4-{3-[1-Benzhydryl-5-chloro-2-(2-{[(2-fluorophenyl)sulfonyl]amino}ethyl)-1H-indol-3-yl)propyl]benzoic acid]
190 nM	O=C(O)c1ccc(OCCc2c(CCNS(=O)(=O)c3c(Cl)cccc3Cl)n(C(c3ccccc3)c3ccccc3)c3ccc(Cl)cc23)cc1 [Example 160, 4-{2-[1-benzhydryl-5-chloro-2-(2-{[(2,6-dichlorophenyl)sulfonyl]amino}ethyl)-1H-indol-3-yl]ethoxy}benzoic acid]
90 nM	O=C(O)c1ccc(CCCc2c(CCNS(=O)(=O)c3c(F)cccc3C(F)(F)F)n(C(c3ccccc3)c3ccccc3)c3ccc(Cl)cc23)cc1 [Example 268, 4-(3-{1-benzhydryl-5-chloro-2-[2-({[2-fluoro-6-(trifluoromethyl)phenyl]sulfonyl}amino)ethyl]-1H-indol-3-yl}propyl)benzoic acid]
1200 nM	CC1CCCN(CCS(=O)(=O)NCCc2c(CCOc3ccc(C(=O)O)cc3)c3cc(Cl)ccc3n2C(c2ccccc2)c2ccccc2)C1 (centres unmarked) [Example 246, 4-(2-{I-benzhydryl-5-chloro-2-[2-({[2-(3-methylpiperidin-1-yl)ethyl]sulfonyl}amino)ethyl]-1H-indol-3-yl}ethoxy)benzoic acid]
200 nM	O=C(O)c1ccc(CCCc2c(CCNS(=O)(=O)c3ccccc3Br)n(C(c3ccccc3)c3ccccc3)c3ccc(Cl)cc23)cc1 [Example 158, 4-{3-[1-benzhydryl-2-(2-{[(2-bromophenyl)sulfonyl]amino}ethyl)-5-chloro-1H-indol-3-yl]propyl}benzoic acid]
400 nM	O=C(O)c1ccc(CCCc2c(CCNS(=O)(=O)c3ccc(C(F)(F)F)cc3)n(C(c3ccccc3)c3ccccc3)c3ccc(Cl)cc23)cc1 [Example 228]
160 nM	Cc1cc(C)c(S(=O)(=O)NCCc2c(CCOc3ccc(C(=O)O)cc3)c3cc(Cl)ccc3n2C(c2ccccc2)c2ccccc2)c(C)c1 [Example 266, 4-[2-(1-benzhydryl-5-chloro-2-{2-[(mesitylsulfonyl)amino]ethyl}-1H-indol-3-yl)ethoxy]benzoic acid]
200 nM	O=C(O)c1ccc(OCCc2c(CCNS(=O)(=O)c3ccccc3-c3ccccc3)n(C(c3ccccc3)c3ccccc3)c3ccc(Cl)cc23)cc1 [Example 164, 4-[2-(1-benzhydryl-2-{2-[(1,1′-biphenyl-2-ylsulfonyl)amino]ethyl}-5-chloro-1H-indol-3-yl)ethoxy]benzoic acid]
320 nM	O=C(O)c1ccc(CCCc2c(CCNS(=O)(=O)c3ccc(N4CCOCC4)nc3)n(C(c3ccccc3)c3ccccc3)c3ccc(Cl)cc23)cc1 [Example 181, 4-{3-[1-benzhydryl-5-chloro-2-(2-{[(6-morpholin-4-ylpyridin-3-yl)sulfonyl]amino}ethyl)-1H-indol-3-yl]propyl}benzoic acid]
350 nM	O=C(O)c1ccc(CCCc2c(CCNS(=O)(=O)c3ccc(Cl)c4nonc34)n(C(c3ccccc3)c3ccccc3)c3ccc(Cl)cc23)cc1 [Example 172, 4-{3-[1-benzhydryl-5-chloro-2-(2-{[(7-chloro-2,1,3-benzoxadiazol-4-yl)sulfonyl]amino}ethyl)-1H-indol-3-yl]propyl}benzoic acid]
160 nM	O=C(O)c1ccc(CCCc2c(CCNS(=O)(=O)c3c(Cl)cccc3Cl)n(C(c3ccccc3)c3ccccc3)c3ccc(Cl)cc23)cc1 [Example 153, 4-{3-[1-benzhydryl-5-chloro-2-(2-{[(2,6-dichlorophenyl)sulfonyl]amino}ethyl)-1H-indol-3-yl]propyl}benzoic acid]
100 nM	CC(C)Oc1ccccc1S(=O)(=O)NCCc1c(CCCc2ccc(C(=O)O)cc2)c2cc(Cl)ccc2n1C(c1ccccc1)c1ccccc1 [Example 186, 4-(3-{1-Benzhydryl-5-chloro-2-[2-(2-isopropoxy-benzenesulfonylamino)-ethyl]-1H-indol-3-yl}-propyl)benzoic acid]
74 nM	Cc1cc(C)c(S(=O)(=O)NCCc2c(CCCc3ccc(C(=O)O)cc3)c3cc(Cl)ccc3n2C(c2ccccc2)c2ccccc2)c(C)c1 [Example 267, 4-(3-{1-Benzhydryl-5-chloro-2-[2-(2,4,6-trimethyl-benzenesulfonylamino)-ethyl]-1H-indol-3-yl}-propyl)-benzoic acid]
300 nM	NCc1ccccc1S(=O)(=O)NCCc1c(CCOc2ccc(C(=O)O)cc2)c2cc(Cl)ccc2n1C(c1ccccc1)c1ccccc1 [Example 163, 4-(2-{2-[2-({[2-(aminomethyl)phenyl]sulfonyl}amino)ethyl]-1-benzhydryl-5-chloro-1H-indol-3-yl}ethoxy)benzoic acid]
950 nM	O=C(O)c1ccc(OCCc2c(CCNS(=O)(=O)c3cc(F)c(Cl)cc3F)n(C(c3ccccc3)c3ccccc3)c3ccc(Cl)cc23)cc1 [Example 170, 4-{2-[1-benzhydryl-5-chloro-2-(2-{[(4-chloro-2,5-difluorophenyl)sulfonyl]amino}ethyl)-1H-indol-3-yl]ethoxy}benzoic acid]
350 nM	O=C(O)c1ccc(CCCc2c(CCNS(=O)(=O)C3CC3)n(C(c3ccccc3)c3ccccc3)c3ccc(Cl)cc23)cc1 [Example 280, 4-[3-(1-benzhydryl-5-chloro-2-{2-[(cyclopropylsulfonyl)amino]-ethyl}-1H-indol-3-yl)propyl]benzoic acid]
300 nM	CS(=O)(=O)c1ccc(S(=O)(=O)NCCc2c(CCCc3ccc(C(=O)O)cc3)c3cc(Cl)ccc3n2C(c2ccccc2)c2ccccc2)cc1 [Example 202, 4-(3-{1-Benzhydryl-5-chloro-2-{2-({[4-(methysulfonyl)phenyl]sulfonyl}amino)ethyl]-1H-indol-3-yl}propyl)benzoic acid]
480 nM	CSc1ccccc1S(=O)(=O)NCCc1c(CCOc2ccc(C(=O)O)cc2)c2cc(Cl)ccc2n1C(c1ccccc1)c1ccccc1 [Example 239, 4-(2-{1-benzhydryl-5-chloro-2-[2-({[2-(methylthio)phenyl]sulfonyl}amino)ethyl]-1H-indol-3-yl}ethoxy)benzoic acid]
650 nM	O=C(O)c1ccc(OCCc2c(CCNS(=O)(=O)c3ccc(Cl)cc3Cl)n(C(c3ccccc3)c3ccccc3)c3ccc(Cl)cc23)cc1 [Example 159, 4-{2-[1-benzhydryl-5-chloro-2-(2-{[(2,4-dichlorophenyl)sulfonyl]amino}ethyl)-1H-indol-3-yl]ethoxy}benzoic acid]
400 nM	Cc1c(S(=O)(=O)NCCc2c(CCOc3ccc(C(=O)O)cc3)c3cc(Cl)ccc3n2C(c2ccccc2)c2ccccc2)cnn1-c1ccccc1 [Example 211, 4-{2-[1-benzhydryl-5-chloro-2-(2-{[(5-methyl-1-phenyl-1H-pyrazol-4-yl)sulfonyl]amino}ethyl)-1H-indol-3-yl]ethoxy}benzoic acid]
670 nM	CCC1CCCCN1CCS(=O)(=O)NCCc1c(CCOc2ccc(C(=O)O)cc2)c2cc(Cl)ccc2n1C(c1ccccc1)c1ccccc1 (centres unmarked) [Example 249, 4-(2-{1-benzhydryl-5-chloro-2-[2-({[2-(2-ethylpiperidin-1-yl)ethyl]sulfonyl}amino)ethyl]-1H-indol-3-yl}ethoxy)benzoic acid]
130 nM	O=C(O)CCc1ccc(S(=O)(=O)CCc2c(CCNS(=O)(=O)Cc3ccc(Cl)c(Cl)c3)n(C(c3ccccc3)c3ccccc3)c3ccc(Cl)cc23)cc1 [Example 129, 3-[4-({2-[1-benzhydryl-5-chloro-2-(2-{[(3,4-dichlorobenzyl)sulfonyl]amino}ethyl)-1H-indol-3-yl]ethyl}sulfonyl)phenyl] propanoic acid]
180 nM	COc1ccccc1S(=O)(=O)NCCc1c(CCOc2ccc(C(=O)O)cc2)c2cc(Cl)ccc2n1C(c1ccccc1)c1ccccc1 [Example 235, 4-{2-[1-benzhydryl-5-chloro-2-(2-{[(2-methoxyphenyl)sulfonyl]amino}ethyl)-1H-indol-3-yl]ethoxy}benzoic acid]
